Experimental findings from PubChem BioAssay AID248 (DTP/NCI, 2004) are described below.

“And” between values parts separate entries of the source, which are not always exact repeats. Identical values can stand only once. Inconclusive results and toxic doses are left out.

This test deals with L1210 leukemia ip in BDF1 mice, survival T/C. Description: NCI In Vivo Anticancer Drug Screen. Data for tumor model L1210 Leukemia (intraperitoneal) in B6D2F1 (BDF1) mice. The note with it: endpoint: mean survival time, higher = longer survival. In outline: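 Ratio derived from survival: compound-dosed mice over vehicle-dosed mice, all bearing a transplantable tumor.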
Where [1] appears, read: dose: 100.0 mg/kg/injection, schedule: Q04DX003 (ip), vehicle: saline.
Where [2] appears, read: dose: 200.0 mg/kg/injection, schedule: Q04DX003 (ip), vehicle: saline.
Setting [3] is: dose: 400.0 mg/kg/injection, schedule: Q04DX003 (ip), vehicle: saline.
Setting [4] is: dose: 100.0 mg/kg/injection, schedule: Q01DX009 (ip), vehicle: Klucel (hydroxypropylcellulose) (HPC).
The mark [5] stands for this setting: dose: 100.0 mg/kg/injection, schedule: Q04DX003 (ip), vehicle: Klucel (hydroxypropylcellulose) (HPC).
Setting [6] is: dose: 200.0 mg/kg/injection, schedule: Q04DX003 (ip), vehicle: Klucel (hydroxypropylcellulose) (HPC).
Where [7] appears, read: dose: 400.0 mg/kg/injection, schedule: Q01DX009 (ip), vehicle: Klucel (hydroxypropylcellulose) (HPC).
Where [8] appears, read: dose: 400.0 mg/kg/injection, schedule: Q04DX003 (ip), vehicle: Klucel (hydroxypropylcellulose) (HPC).
Setting [9] is: dose: 200.0 mg/kg/injection, schedule: Q01DX009 (ip), vehicle: Klucel (hydroxypropylcellulose) (HPC).

With `CCOC(=N)c1cn(C2OC(CO)C(O)C2O)c2ncnc(N)c12` (configuration not stated), the T/C is 120 % of control (dose: 0.12 mg/kg/injection, schedule: Q01DX009 (ip), vehicle: saline with Tween-80); 109 % of control (dose: 0.12 mg/kg/injection, schedule: Q01DX009 (ip), vehicle: saline); 120 % of control (dose: 0.18 mg/kg/injection, schedule: Q01DX009 (ip), vehicle: saline with Tween-80); 123 % of control (dose: 0.18 mg/kg/injection, schedule: Q01DX009 (ip), vehicle: saline); 117 % of control (dose: 0.27 mg/kg/injection, schedule: Q01DX009 (ip), vehicle: saline with Tween-80); 121 % of control (dose: 0.27 mg/kg/injection, schedule: Q01DX009 (ip), vehicle: saline). In addition, the T/C is, setting by setting: (dose: 0.6 mg/kg/injection, schedule: Q01DX009 (ip), vehicle: saline) 118 % of control; (dose: 0.9 mg/kg/injection, schedule: Q01DX009 (ip), vehicle: saline) 112 % of control; (dose: 1.3 mg/kg/injection, schedule: Q01DX009 (ip), vehicle: saline) 96 % of control.
For the compound `O=C1CSC(=S)N1c1ccco1`, the T/C reads like this: (dose: 100.0 mg/kg/injection, schedule: Q01DX009 (ip), vehicle: saline) 102 % of control; under setting [1], 93 % of control; (dose: 200.0 mg/kg/injection, schedule: Q01DX009 (ip), vehicle: saline) 102 % of control; under setting [2], 88 % of control; under setting [3], 93 % of control.
For the compound `O=C(Oc1c(Cl)cc(Cl)cc1C=Nc1cccc(C(F)(F)F)c1)c1ccccc1`, the T/C runs as follows: (dose: 100.0 mg/kg/injection, schedule: Q01DX009 (ip), vehicle: other) 101 % of control; (dose: 200.0 mg/kg/injection, schedule: Q01DX009 (ip), vehicle: other) 101 % of control; (dose: 400.0 mg/kg/injection, schedule: Q01DX009 (ip), vehicle: other) 101 % of control.
For `Oc1c(Br)cc(Br)cc1/C=N/N=C/c1cc(Br)cc(Br)c1O`, the T/C is 90 % of control (dose: 100.0 mg/kg/injection, schedule: Q01DX001 (ip), vehicle: Klucel (hydroxypropylcellulose) (HPC)); 98 % of control under setting [4]; 90 % of control under setting [5]; 90 % of control (dose: 200.0 mg/kg/injection, schedule: Q01DX001 (ip), vehicle: Klucel (hydroxypropylcellulose) (HPC)); 97 % of control under setting [6]; 90 % of control (dose: 400.0 mg/kg/injection, schedule: Q01DX001 (ip), vehicle: Klucel (hydroxypropylcellulose) (HPC)). The T/C is 88 % of control under setting [7] and 94 % of control under setting [8].
In the case of `CC(NC(=O)NCCCl)c1ccsc1` (configuration not stated), the T/C is 111 % of control (dose: 2.5 mg/kg/injection, schedule: Q01DX009 (ip), vehicle: Klucel (hydroxypropylcellulose) (HPC)); 98 % of control (dose: 5.0 mg/kg/injection, schedule: Q01DX009 (ip), vehicle: Klucel (hydroxypropylcellulose) (HPC)); 94 % of control and 92 % of control (dose: 10.0 mg/kg/injection, schedule: Q01DX009 (ip), vehicle: Klucel (hydroxypropylcellulose) (HPC)).
On to `Cc1ccc(C)c(Nc2nc(Cl)nc3ncn(C)c23)c1`, for which the T/C was 103 % of control (dose: 100.0 mg/kg/injection, schedule: Q01DX001 (ip), vehicle: other); 102 % of control (dose: 100.0 mg/kg/injection, schedule: Q04DX003 (ip), vehicle: other); 90 % of control (dose: 200.0 mg/kg/injection, schedule: Q01DX001 (ip), vehicle: other); 117 % of control (dose: 200.0 mg/kg/injection, schedule: Q04DX003 (ip), vehicle: other); 94 % of control (dose: 400.0 mg/kg/injection, schedule: Q01DX001 (ip), vehicle: other); 110 % of control (dose: 400.0 mg/kg/injection, schedule: Q04DX003 (ip), vehicle: other).
For `Nc1nc(N)c2nc(CN3CCCc4cc(C(=O)NC(CCC(=O)O)C(=O)O)ccc43)cnc2n1` (configuration not stated), the T/C under setting [1] was 207 % of control.
As to `O=[N+]([O-])/C=C\c1ccc(/C=C/[N+](=O)[O-])cc1`, the T/C (dose: 1.5 mg/kg/injection, schedule: Q01DX009 (ip), vehicle: other) was 95 % of control; the T/C (dose: 1.5 mg/kg/injection, schedule: Q04DX003 (ip), vehicle: other) is 101 % of control; the T/C (dose: 3.0 mg/kg/injection, schedule: Q01DX009 (ip), vehicle: other) was 93 % of control; the T/C (dose: 3.0 mg/kg/injection, schedule: Q04DX003 (ip), vehicle: other) is 101 % of control; the T/C (dose: 6.0 mg/kg/injection, schedule: Q04DX003 (ip), vehicle: other) was 98 % of control.
For `CCOC(=O)C(Cc1ccccc1)(NC=O)C(=O)OCC`, the T/C by setting is: under setting [4], 94 % of control; under setting [9], 98 % of control; under setting [7], 96 % of control.
On to `CCOC(=O)C1=NN(c2ccccc2)C(=O)C1N=Nc1ccc(NS(=O)(=O)c2nccs2)cc1` (configuration not stated), for which the T/C reads like this: (dose: 100.0 mg/kg/injection, schedule: Q01DX001 (ip), vehicle: saline) 102 % of control; (dose: 200.0 mg/kg/injection, schedule: Q01DX001 (ip), vehicle: saline) 105 % of control; (dose: 400.0 mg/kg/injection, schedule: Q01DX001 (ip), vehicle: saline) 96 % of control.
In the case of `Nc1ncnc2c1ncn2C1OC(CO)C(O)C1O.[Cl][Pt][Cl]` (configuration not stated), the T/C was 97 % of control (dose: 100.0 mg/kg/injection, schedule: Q01DX009 (ip), vehicle: water); 94 % of control (dose: 100.0 mg/kg/injection, schedule: Q04DX003 (ip), vehicle: water); 103 % of control (dose: 200.0 mg/kg/injection, schedule: Q01DX009 (ip), vehicle: water); 97 % of control (dose: 200.0 mg/kg/injection, schedule: Q04DX003 (ip), vehicle: water); 100 % of control (dose: 400.0 mg/kg/injection, schedule: Q01DX009 (ip), vehicle: water); 94 % of control (dose: 400.0 mg/kg/injection, schedule: Q04DX003 (ip), vehicle: water).
With `O=C(O)CP(=O)(O)O`, the T/C is 102 % of control (dose: 75.0 mg/kg/injection, schedule: Q04DX003 (ip), vehicle: saline); 102 % of control (dose: 150.0 mg/kg/injection, schedule: Q04DX003 (ip), vehicle: saline); 93 % of control (dose: 300.0 mg/kg/injection, schedule: Q04DX003 (ip), vehicle: saline).
Regarding `Cc1ccc(S(=O)(=O)NC(=O)NCCS)cc1`, the T/C was 100 % of control under setting [1], 102 % of control under setting [2] and 96 % of control under setting [3].
As to `CCCC(CCC)OC(=O)C(O)c1ccccc1` (configuration not stated), the T/C runs as follows: (dose: 100.0 mg/kg/injection, schedule: Q01DX001 (ip), vehicle: acetone) 94 % of control; (dose: 200.0 mg/kg/injection, schedule: Q01DX001 (ip), vehicle: acetone) 94 % of control; (dose: 400.0 mg/kg/injection, schedule: Q01DX001 (ip), vehicle: acetone) 100 % of control.
Regarding `C=CCOCC(O)CN(CC)c1ccccc1` (configuration not stated), the T/C is 95 % of control (dose: 50.0 mg/kg/injection, schedule: Q01DX009 (ip), vehicle: Klucel (hydroxypropylcellulose) (HPC)); 96 % of control under setting [4]; 100 % of control under setting [5]; 94 % of control and 102 % of control under setting [9]; 102 % of control under setting [6]; 90 % of control under setting [7]. The T/C under setting [8] was 100 % of control.
As for `Oc1ccc(C2CC3CCC2C3)cc1` (configuration not stated), the T/C runs as follows: (dose: 100.0 mg/kg/injection, schedule: Q04DX003 (ip), vehicle: saline + alcohol) 98 % of control; (dose: 200.0 mg/kg/injection, schedule: Q04DX003 (ip), vehicle: saline + alcohol) 90 % of control; (dose: 400.0 mg/kg/injection, schedule: Q04DX003 (ip), vehicle: saline + alcohol) 96 % of control.
As for `N#Cc1csc(CCNC(=O)c2ccccc2)n1`, the T/C is 105 % of control (dose: 100.0 mg/kg/injection, schedule: Q01DX001 (ip), vehicle: saline with Tween-80); 100 % of control (dose: 100.0 mg/kg/injection, schedule: Q04DX003 (ip), vehicle: saline with Tween-80); 104 % of control (dose: 200.0 mg/kg/injection, schedule: Q01DX001 (ip), vehicle: saline with Tween-80); 93 % of control (dose: 200.0 mg/kg/injection, schedule: Q04DX003 (ip), vehicle: saline with Tween-80); 93 % of control (dose: 400.0 mg/kg/injection, schedule: Q01DX001 (ip), vehicle: saline with Tween-80); 94 % of control (dose: 400.0 mg/kg/injection, schedule: Q04DX003 (ip), vehicle: saline with Tween-80).
